Values of other authors, collected in patent US6475530B1, “Methods and compositions for producing weight loss” (priority 2000, dated 2002).
One block for each compound: values may come before it.

Legend:
growth hormone = conditions: healthy postmenopausal women; 9 grams per day
[1] = mice; substance by itself
cyclooxygenase = conditions: single large dose
[2] = single dose of 300 mg. per day; healthy young adults

Compound: N=C(N)NCCC[C@H](N)C(=O)O [L-arginine]
increase in growth hormone (growth hormone): 72%

time for prostaglandin levels to return to baseline (cyclooxygenase): ≤ 6 h
time to gastric erosion [2]: 5 to 7 days
Compound: CC(=O)Oc1ccccc1C(=O)O [aspirin, acetylsalicylic acid]
weight loss [1]: no weight loss

Compound: O=C(O)c1cccnc1 [nicotinic acid]
effect on free fatty acids (free fatty acids; given in the daytime): reduces free fatty acids temporarily, but then there is a rebound effect
duration of reduction in free fatty acids (free fatty acids; given nocturnally, constant infusion from 8:00 PM to 6 AM, without rebound effect): 24 h
